Results as given in US11136297B2, “Compositions and methods for treating cancer” (THE REGENTS OF THE UNIVERSITY OF CALIFORNIA, priority 2016, dated 2021).

Key:
[1] = molecular target: T1, 1-181 H-Ras(G12V/M72C/C118S) (Homo sapiens, UniProt P01112, C118S/G12V/M72C); assay: Coupling of Compound 3 to H-Ras M72C construct for lipid kinase assays; assay type: binding; conditions: M72C construct with 200-250 Compound 3, 72 hours, 4° C.
T1 construct: Plasmids expressing 1-181 H-Ras(G12V/C118S) and H-Ras(G12V/M72C/C118S); His tag (purified on HisTrap, TEV-cleavable) (cleaved yes); made in house; host or cells: Escherichia coli BL21 DE3
Experimental: Coupling to inhibitor was done in a reaction containing […], 100 mM TCEP, 1 mM MgCl2 and […] Compound 3. DMSO was adjusted to a final concentration of 5%. After 24 hours, more inhibitor was added to a total final concentration of […]. The coupling was allowed to proceed for −72 hours at 4° C. Coupling efficiency was −70%. The coupled protein was exchanged with gel filtration buffer and loaded with GTPgS in the same manner as the H-Ras(G12V) construct. The protein was then run on a Superdex™ 75 10/300 GL size-exclusion column (GE Healthcare) equilibrated in Ras gel filtration buffer to remove excess nucleotide.

[2] = molecular target: T2, p110d/p85a (PI3K-d) activation by H-Ras-GTP (Homo sapiens, UniProt P01112, C118S/G12V/M72C); assay: PI3K lipid kinase assay with membrane-coupled H-Ras (Transcreener ADP2 FI); assay type: biochemical; conditions: with pY phosphopeptide; H-Ras(G12V) alone gave 20-fold
T2 construct: Plasmids expressing 1-181 H-Ras(G12V/C118S) and H-Ras(G12V/M72C/C118S); His tag (purified on HisTrap, TEV-cleavable) (cleaved yes); made in house; host or cells: Escherichia coli BL21 DE3 (H-Ras)
Experimental: Purification and Modification of H-Ras Constructs for Lipid Kinase Assays. Plasmids expressing 1-181 H-Ras(G12V/C118S) and H-Ras(G12V/M72C/C118S) were transformed into BL21 DE3 and the culture was induced at OD 0.6-0.9 with […] IPTG. The cultures were then allowed to grow for 4 h at 37° C. after which the cells were pelleted and stored at −80° C. Frozen pellets were re-suspended in lysis buffer and lysed by sonication (10s ON; 10s OFF; Power-6.0). Triton-X was added to a final concentration of 0.1% and lysate was centrifuged at 20,000 g for 45 minutes (Beckman Coulter Avanti J-251, JA 25.50 rotor). The supernatant was loaded on a 5 mL HisTrapTm FF column (GE Healthcare) equilibrated with buffer containing 10 mM imidazole pH 8.0 (NiNTA A). Following washes with 20 mL NiNTA A and 20 mL of 6% buffer containing 200 mM imidazole pH 8.0 (NiNTA B), the protein was eluted in 100% NiNTA B. The elution was buffer exchanged with NiNTA A buffer in a 10,000 MWCO Amicon concentrator (Millipore). The sample was concentrated down to <2 mL and TEV protease was added to −0.3 mg/mL. The cleavage was allowed to proceed overnight at 4° C. To de-enrich the TEV protease, the protein solution was loaded onto a HisTrapTm FF column and eluted with 10 mL of NiNTA A buffer. The elution was concentrated to −2 mL. […]

[3] = molecular target: T3, H-Ras(M72C) bound to either GDP or GppNHp (Homo sapiens, UniProt P01112, M72C); assay: Electrophile labeling experiments (percent modification by whole protein LC/MS); assay type: binding
T3 construct: Labeling studies were conducted using the 1-166 H-Ras(M72C) construct containing all endogenous cysteines; His6; made in house; host or cells: Escherichia coli BL21(DE3)
Experimental: Electrophile Labeling Experiments.
Each reaction was analyzed in a 96 well plate format for analysis by LC/MS. Total reaction volumes were 25 μL for single time point labeling experiments and 200 uL for full 24-hour time courses. 25 μL reactions were made in the wells of a V-bottom 96 well plate and 200 uL reactions were made in 1.25 mL eppendorf tubes. All labeling reactions were conducted in Gel Filtration Buffer (20 mM HEPES (pH 7.5), 150 mM NaCl) with no added reductant at room temperature. […] Electrophile stocks were made in DMSO at 10 mM, aliquoted, and frozen. Labeling reactions were started by the addition of the desired volume of 10 mM electrophile stock and mixed thoroughly by pipette. General screening of new electrophiles was done at 100 μM electrophile in triplicate and sampled as a single time point after 24 hours of incubation. For Compound 3, labeling time courses were conducted at 20 μM compound with sampling done every 2 hours for the first 10 hours of incubation and continued after overnight incubation until the protein was fully modified. Reactions were allowed to sit at room temperature in the dark (either covered in aluminum foil or in a bench drawer) until the desired time point was reached. For 24-hour single point labeling experiments, the reaction was directly sampled from the 96 well plate and analyzed by LC/MS. For experiments with multiple time points, 22.5 μL aliquots of the 200 μL master reaction were sampled and quenched by the addition of 2.5 μL of 2% formic acid (also made in Gel Filtration Buffer). This 25 μL quenched sample was then analyzed by LC/MS and the remaining master reaction was allowed to continue reacting after gentle mixing by pipette. The percent modification was analyzed by electrospray mass spectrometry using a Waters Acquity UPLC/ESI-TQD with a 2.1×50 mm Acquity UPLC BEH300 C4 column.

Structure (SMILES): C=CC(=O)Nc1cc(Cl)cc(NC(=O)c2cnn(-c3ccc(OC)cc3)c2C(F)(F)F)c1 [Compound 3, N-(3-acrylamido-5-chlorophenyl)-1-(4-methoxyphenyl)-5-(trifluoromethyl)-1H-pyrazole-4-carboxamide]
- Coupling efficiency [1]: 70%
- activation of PI3K-d activity by H-Ras(G12V/M72C) bound to compound [2]: ~3 fold
- Percent modification (labeling of Cys 72) ([3]; 4 μM H-Ras(M72C) GDP or GppNHp, 100 μM electrophile, 24 hours): improved covalent binding
- labeling of the GDP state ([3]; H-Ras(M72C) GDP, 20 μM electrophile (1:5 Ras to Compound 3), time course): rapidly and fully labels the GDP state
- modification of the GppNHp state ([3]; H-Ras(M72C) GppNHp, 20 μM electrophile (1:5 Ras to Compound 3)): 88.7%
